Key:
[1] = system: testis of I/R rats; experiment: Testicular TAC in testis of I/R rats; type: in vivo; conditions: i.p. 1 h before ischemia, dose equivalent to 30 mg NAC, mean ± S.E.M, n=6
Method: (§1) This section describes the methods used in the investigation of the antiapoptotic effect of the novel compounds 6a–g then supported by further histological and molecular docking studies. The antiapoptotic effect of 6a–g was evaluated through evaluation of decreasing tissue damage induced by I/R in the testis of rats in a dose equivalent to 30 mg N-acetylcysteine (NAC) as an antiapoptotic reference. The rats were subdivided into sham, I/R, NAC and treated with tested compounds groups, each group comprises of 6 rats (weighing 140–150 g). The targeted compounds 6a–g were administrated intra-peritoneal (i.p.) an hour before ischemia, which lasted for (0.5 h) then reperfusion (1 h) followed by cutting the organ (Figure 5). Different biomarkers concentrations were measured in serum to detect testis injury due to ischemia/reperfusion (I/R).
(§2) During the long testicular torsion, oxidation damage affects the testis by the production of the reactive oxygen species (ROS). Excessive generation of the ROS interacts with lipids, proteins, and nucleic acids, which has an adverse effect on cell function and damage. The testis has high cell metabolism such that excessive ROS production weakens antioxidant capacity. Malondialdehyde (MDA) is the end product of lipid peroxidation and increased MDA level has an adverse effect on sperm fertility. Furthermore, total antioxidant capacity (TAC) is the measure of the number of free radicals scavenged by a test solution, being used to evaluate the antioxidant capacity of biological samples [55]. The data collected in Table S3 (Supplementary Materials) have identified that there was a significant increase in testicular MDA with a significant decrease in testicular TAC in the I/R group as well as compounds 6d and 6f when compared to sham control and NAC groups. These findings indicate that both 6d and 6f are the worst antiapoptotic compounds compound amongst all the synthesized compounds.
TAC was assessed by the colorimetric technique using commercial kits (El-Minia, Egypt) (See Supplementary Materials). Testicular MDA, an index of lipid peroxidation, was determined by using 1,1,3,3-tetramethoxypropane as standard (See Supplementary Materials). […]
1.3.Determination of Total Antioxidant Capacity (Testicular tissue)
Free radicals or reactive oxygen species (ROS) are produced during biochemical redox reactions as part
of normal physiological cell metabolism (protection from infectious organisms) and as a response to
environmental factors such as UV light, cigarette smoke, environmental pollutants, and g-radiation. Once
formed, ROS attack cellular components causing damage to lipids, proteins, and DNA which can initiate
Antioxidants in the sample reduce dark blue-green colored ABTS radical to colorless reduced ABTS
form. The change of absorbance at 660 nm is related with total antioxidant level of the sample. The assay
is calibrated with a stable antioxidant standard solution which is traditionally named as Trolox
Equivalent that is a vitamin E analog.
The determination of the antioxidative capacity is performed by the reaction of antioxidants in the
sample with a defined amount of exogenously provide hydrogen peroxide (H2O2) The antioxidants in the
sample eliminate a certain amount of the provided hydrogen peroxide. The residual H2O2 is determined
(1 picture or pasted object on this page, not shown here)
colorimetrically by an enzymatic reaction which involves the conversion of 3,5,dichloro–2–hydroxy
benzensulphonate to a colored product.
* Dilute R11000 times immediately before use (10 μl R1 + 10 ml d. Water mix Discard after use.
*Working Reagent: mix equal volumes of R2 and R3 immediately before use.
*Dilute sample if necessary
Total Antioxidant concentration […]

[2] = system: testis of I/R rats; experiment: Testicular MDA in testis of I/R rats; type: in vivo; conditions: i.p. 1 h before ischemia, dose equivalent to 30 mg NAC, mean ± S.E.M, n=6
Method: as §1, §2
TAC was assessed by the colorimetric technique using commercial kits (El-Minia, Egypt) (See Supplementary Materials). Testicular MDA, an index of lipid peroxidation, was determined by using 1,1,3,3-tetramethoxypropane as standard (See Supplementary Materials).

[3] = system: testis of I/R rats; experiment: TNFα in testis of I/R rats (ELISA); type: in vivo; conditions: i.p. 1 h before ischemia, dose equivalent to 30 mg NAC, mean ± S.E.M, n=6
Method: as §1
(§3) It was reported that excessive apoptosis in the testis could damage the Leydig cells and apparent decline in serum testosterone levels. Furthermore, excessive apoptosis of Leydig cells results in decreased testosterone. The assays of the apoptotic biomarkers (testicular testosterone and TNFα) were done in comparison with the sham and NAC treated group and the results were outlined in Table S4 (Supplementary Materials).
(§4) TNF-α was measured by ELISA kit (Elabscience, Houston, TX, USA). Caspase-3 was measured by ELISA kit Cusabio, Houston, TX, USA (See Supplementary Materials). Testosterone concentration in testicular samples was determined by the ELISA kit (“DRG”, Marburg, Germany) (See Supplementary Materials).

[4] = system: caspase-3; experiment: Caspase-3 level in serum of testicular I/R rats (ELISA); type: in vivo; conditions: mean ± S.E.M, n=6
Method: as §1
Caspases can delay apoptosis, implicating a potential role in drug screening efforts. Therefore, we studied the mechanism of the caspase-3 inhibition activity. Caspase-3 was assayed in the serum of rats treated with 6a–g in comparison with sham and the NAC treated group, as shown in Table S5 (Supplementary Materials).
as §4

[5] = system: testis of I/R rats; experiment: Testicular testosterone in testis of I/R rats (ELISA); type: in vivo; parameters: unit not given here; conditions: i.p. 1 h before ischemia, dose equivalent to 30 mg NAC, mean ± S.E.M, n=6
Method: as §1, §3, §4
1.2.Determination of serum testosterone using ELISA kit
This ELISA kit uses the Competitive-ELISA principle. The micro ELISA plate provided in this kit has been pre-coated with T. During the reaction, T in the sample or standard competes with a fixed amount of T on the solid phase supporter for sites on the Biotinylated Detection Ab specific to T. Excess conjugate and unbound sample or standard are washed from the plate, and Avidin conjugated to Horseradish Peroxidase (HRP) are added to each microplate well and incubated. Then a TMB substrate solution is added to each well. The enzyme-substrate reaction is terminated by the addition of stop solution and the color change is measured spectrophotometrically at a wavelength of 450 nm ± 2 nm. The concentration of T in the samples is then determined by comparing the OD of the samples to the standard […]
Serum: Allow samples to clot for 2 hours at room temperature or overnight at 4℃ before centrifugation for 20 min at 1000×g at 2-8℃. Collect the supernatant to carry out the assay. Blood collection tubes should be disposable and be non-endotoxin. […]
1. Bring all reagents to room temperature (18~25℃) before use. Follow the Microplate reader manual for set-up and preheat it for 15 min before OD measurement.
2. Wash Buffer: Dilute 30 mL of Concentrated Wash Buffer with 720 mL of deionized or distilled water to prepare 750 mL of Wash Buffer. Note: if crystals have formed in the concentrate, warm it in a 40℃ water-bath and mix it gently until the crystals have completely dissolved.
3. Standard working solution: Centrifuge the standard at 10,000×g for 1min. Add 1.0mL of Reference Standard &Sample Diluent, let it stand for 10min and invert it gently several times. After it dissolves fully, mix it thoroughly with a pipette. This reconstitution produces a working solution of 20 ng/mL. Then make serial dilutions as needed. The recommended dilution gradient is as […]
Dilution method: Take 7 EP tubes, add 500uL of Reference Standard & Sample Diluent to each tube. Pipette 500uL of the 20 ng/mL working solution to the first tube and mix up to produce a 10 ng/mL working solution. Pipette 500uL of the solution from the former tube to the latter one according to this step. The illustration below is for reference. Note: the last tube is regarded as a blank. Don’t pipette solution into it from the former tube.

Compound | Testicular TAC [1] | Testicular MDA [2] | TNF-α [3] | Caspase-3 level [4] | Testicular testosterone [5] | melting point
O=c1cc(OCc2cn(-c3cc(=O)[nH]c4ccccc34)nn2)c2ccccc2[nH]1 [6a, 4-((1-(2-Oxo-1,2-dihydroquinolin-4-yl)-1H-1,2,3-triazol-4-yl)methoxy)quinolin-2(1H)-one] | 5.48±0.41 mmol/g tissue | 62.38±4.23 nmol/g tissue | 106.40 ± 4.44 pg/mL | 2.66 ± 0.21 ng/mL | 4.93±0.38 | 300 to 302 °C
Cc1ccc2[nH]c(=O)cc(-n3cc(COc4cc(=O)[nH]c5ccccc45)nn3)c2c1 [6b, 6-Methyl-4-(4-(((2-oxo-1,2-dihydroquinolin-4-yl)oxy)methyl)-1H-1,2,3-triazol-1-yl)quinolin-2(1H)-one] | 4.62±0.33 mmol/g tissue | 61.84±4.77 nmol/g tissue | 107.90 ± 2.96 pg/mL | 2.94 ± 0.28 ng/mL | 5.07±0.45 | 298 °C

— publication PMC7672604, “Design, Synthesis, Molecular Docking, Antiapoptotic and Caspase-3 Inhibition of New 1,2,3-Triazole/Bis-2(1H)-Quinolinone Hybrids” (Molecules, 2020)
